Laboratory results: US6653307B2, “1-aryl-4-oxo-1,4-dihydro-3-quinolinecarboxamides as antiviral agents” (Pharmacia & Upjohn Company, priority 2000, dated 2003)

Key:
[1] = biological target: VZV polymerase (Varicella-zoster virus, UniProt P09252); assay: VZV polymerase assay (Table 1); type: biochemical
Method: [Worded in the source for another target; this target is reported under the same test.] (§1) The HCMV polymerase assay is performed using a scintillation proximity assay (SPA) as described in several references, such as N.D. Cook, et al., Pharmaceutical Manufacturing International, pages 49-53 (1992); K. Takeuchi, Laboratory Practice, September issue (1992); U.S. Pat. No. 4,568,649 (1986); which are incorporated by reference herein. Reactions are performed in 96-well plates. The assay is conducted in 100 μl volume with 5.4 mM HEPES (pH 7.5), 11.7 mM KCl, 4.5 mM MgCl2, 0.36 mg/ml BSA, and 90 nM ^3H-dTTP. Assays are run with and without CHAPS, (3-[(3-cholamidopropyl)-dimethylammonio]-1-propane-sulfonate) at a final concentration of 2 mM. HCMV polymerase is diluted in enzyme dilution buffer containing 50% glycerol, 250 mM NaCl, 10 mM HEPES (pH 7.5), 100 μg/ml BSA, and 0.01% sodium azide. The HCMV polymerase, which is expressed in recombinant baculovirus-infected SF-9 cells and purified according to literature procedures, is added at 10% (or 10 μl) of the final reaction volume, i.e., […]. Compounds are diluted in 50% DMSO and 10 μl are added to each well. Control wells contain an equivalent concentration of DMSO. Unless noted otherwise, reactions are initiated via the addition of 6 nM biotinylated poly(dA)-oligo(dT) template/primer to reaction mixtures containing the enzyme, substrate, and compounds of interest. Plates are incubated in a 25 C or 37 C H2O bath and terminated via the addition of 40 μl/reaction of 0.5 M EDTA (pH 8) per well. Reactions are terminated within the time-frame during which substrate incorporation is linear and varied depending upon the enzyme and conditions used, i.e., 30 min. for HCMV polymerase. Ten μl of streptavidin-SPA beads (20 mg/ml in PBS/10% glycerol) are added following termination of the reaction. Plates are incubated 10 min. at 37 C, then equilibrated to room temperature, and counted on a Packard Topcount. Linear regressions are performed and IC50's are calculated using computer software. A modified version of the above HCMV polymerase assay is performed as described above, but with the following changes: Compounds are diluted in 100% DMSO until final dilution into assay buffer. In the previous assay, compounds are diluted in 50% DMSO. 4.5 mM dithiotherotol (DTT) is added to the polymerase buffer.

[2] = biological target: HSV polymerase (Human herpesvirus 1, UniProt P04293); assay: HSV polymerase assay (Table 1); type: biochemical
Chain of HSV polymerase (P04293 whole entry): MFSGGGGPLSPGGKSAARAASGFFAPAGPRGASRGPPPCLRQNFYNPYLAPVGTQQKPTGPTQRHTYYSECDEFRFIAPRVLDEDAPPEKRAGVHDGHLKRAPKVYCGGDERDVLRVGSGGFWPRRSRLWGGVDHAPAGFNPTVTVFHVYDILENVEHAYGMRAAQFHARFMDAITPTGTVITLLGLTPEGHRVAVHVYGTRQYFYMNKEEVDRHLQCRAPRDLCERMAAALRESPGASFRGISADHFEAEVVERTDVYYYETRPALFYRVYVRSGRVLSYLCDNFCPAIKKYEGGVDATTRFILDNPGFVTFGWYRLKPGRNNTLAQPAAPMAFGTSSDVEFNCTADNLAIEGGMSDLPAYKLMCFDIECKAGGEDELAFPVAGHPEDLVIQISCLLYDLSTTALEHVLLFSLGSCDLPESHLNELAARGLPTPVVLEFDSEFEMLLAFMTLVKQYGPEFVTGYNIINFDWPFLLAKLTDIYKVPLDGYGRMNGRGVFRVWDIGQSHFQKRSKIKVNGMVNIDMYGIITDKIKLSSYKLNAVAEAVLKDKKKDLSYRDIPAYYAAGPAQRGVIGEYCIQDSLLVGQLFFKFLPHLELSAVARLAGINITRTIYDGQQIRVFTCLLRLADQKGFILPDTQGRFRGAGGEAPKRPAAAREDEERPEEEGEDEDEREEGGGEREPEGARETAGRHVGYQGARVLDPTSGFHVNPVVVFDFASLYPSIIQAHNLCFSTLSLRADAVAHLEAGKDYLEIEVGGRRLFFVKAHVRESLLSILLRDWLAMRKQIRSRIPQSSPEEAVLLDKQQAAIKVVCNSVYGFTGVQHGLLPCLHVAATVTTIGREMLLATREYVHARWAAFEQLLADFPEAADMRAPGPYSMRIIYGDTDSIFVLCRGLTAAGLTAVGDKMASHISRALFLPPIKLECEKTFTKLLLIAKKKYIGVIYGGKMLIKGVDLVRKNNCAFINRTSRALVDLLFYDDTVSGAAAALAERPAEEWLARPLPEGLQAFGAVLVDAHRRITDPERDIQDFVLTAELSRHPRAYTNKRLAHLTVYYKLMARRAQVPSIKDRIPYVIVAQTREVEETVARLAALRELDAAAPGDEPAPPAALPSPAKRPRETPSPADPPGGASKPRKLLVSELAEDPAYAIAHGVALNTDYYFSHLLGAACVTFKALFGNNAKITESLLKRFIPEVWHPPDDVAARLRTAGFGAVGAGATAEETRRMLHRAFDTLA
Method: [Worded in the source for another target; this target is reported under the same test.] as §1

[3] = biological target: T1, HCMV polymerase (Human cytomegalovirus, UniProt P08546); assay: HCMV polymerase scintillation proximity assay (SPA); type: biochemical; settings: 3H-dTTP incorporation
T1 construct: made in house; host or cells: recombinant baculovirus-infected SF-9 cells
T1 sequence (P08546 whole entry): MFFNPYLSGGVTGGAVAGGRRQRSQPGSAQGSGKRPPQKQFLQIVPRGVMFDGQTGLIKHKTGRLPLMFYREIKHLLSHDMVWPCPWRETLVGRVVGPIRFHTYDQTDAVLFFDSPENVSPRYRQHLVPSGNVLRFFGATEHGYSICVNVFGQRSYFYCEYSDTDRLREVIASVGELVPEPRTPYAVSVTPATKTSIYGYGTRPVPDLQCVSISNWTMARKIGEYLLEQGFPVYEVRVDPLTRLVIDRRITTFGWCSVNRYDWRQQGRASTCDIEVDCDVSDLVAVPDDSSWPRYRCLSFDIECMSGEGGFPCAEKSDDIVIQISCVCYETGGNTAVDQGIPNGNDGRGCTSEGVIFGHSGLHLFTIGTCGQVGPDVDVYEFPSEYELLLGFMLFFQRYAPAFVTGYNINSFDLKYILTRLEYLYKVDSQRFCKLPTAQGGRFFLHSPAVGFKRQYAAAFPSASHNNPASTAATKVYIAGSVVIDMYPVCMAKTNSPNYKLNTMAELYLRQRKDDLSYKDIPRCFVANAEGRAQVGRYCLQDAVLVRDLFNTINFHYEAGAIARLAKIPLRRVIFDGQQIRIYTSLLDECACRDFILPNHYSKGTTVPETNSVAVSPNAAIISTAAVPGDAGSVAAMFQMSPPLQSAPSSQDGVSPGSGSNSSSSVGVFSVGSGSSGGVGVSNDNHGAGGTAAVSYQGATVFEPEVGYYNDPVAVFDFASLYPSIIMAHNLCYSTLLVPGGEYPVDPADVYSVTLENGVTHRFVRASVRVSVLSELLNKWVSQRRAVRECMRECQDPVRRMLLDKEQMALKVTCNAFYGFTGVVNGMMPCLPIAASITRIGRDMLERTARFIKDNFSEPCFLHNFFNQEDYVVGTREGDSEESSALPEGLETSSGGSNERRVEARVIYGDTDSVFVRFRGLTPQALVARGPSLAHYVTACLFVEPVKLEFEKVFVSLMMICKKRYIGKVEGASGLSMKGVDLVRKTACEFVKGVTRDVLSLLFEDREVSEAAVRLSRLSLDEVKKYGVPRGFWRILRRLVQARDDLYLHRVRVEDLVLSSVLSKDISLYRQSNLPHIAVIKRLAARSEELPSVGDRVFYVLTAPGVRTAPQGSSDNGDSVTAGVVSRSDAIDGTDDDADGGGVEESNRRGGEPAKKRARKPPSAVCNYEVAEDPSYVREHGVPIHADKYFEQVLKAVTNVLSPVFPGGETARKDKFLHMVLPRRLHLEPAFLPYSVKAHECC
Method: as §1

Chain of VZV polymerase (P09252 whole entry): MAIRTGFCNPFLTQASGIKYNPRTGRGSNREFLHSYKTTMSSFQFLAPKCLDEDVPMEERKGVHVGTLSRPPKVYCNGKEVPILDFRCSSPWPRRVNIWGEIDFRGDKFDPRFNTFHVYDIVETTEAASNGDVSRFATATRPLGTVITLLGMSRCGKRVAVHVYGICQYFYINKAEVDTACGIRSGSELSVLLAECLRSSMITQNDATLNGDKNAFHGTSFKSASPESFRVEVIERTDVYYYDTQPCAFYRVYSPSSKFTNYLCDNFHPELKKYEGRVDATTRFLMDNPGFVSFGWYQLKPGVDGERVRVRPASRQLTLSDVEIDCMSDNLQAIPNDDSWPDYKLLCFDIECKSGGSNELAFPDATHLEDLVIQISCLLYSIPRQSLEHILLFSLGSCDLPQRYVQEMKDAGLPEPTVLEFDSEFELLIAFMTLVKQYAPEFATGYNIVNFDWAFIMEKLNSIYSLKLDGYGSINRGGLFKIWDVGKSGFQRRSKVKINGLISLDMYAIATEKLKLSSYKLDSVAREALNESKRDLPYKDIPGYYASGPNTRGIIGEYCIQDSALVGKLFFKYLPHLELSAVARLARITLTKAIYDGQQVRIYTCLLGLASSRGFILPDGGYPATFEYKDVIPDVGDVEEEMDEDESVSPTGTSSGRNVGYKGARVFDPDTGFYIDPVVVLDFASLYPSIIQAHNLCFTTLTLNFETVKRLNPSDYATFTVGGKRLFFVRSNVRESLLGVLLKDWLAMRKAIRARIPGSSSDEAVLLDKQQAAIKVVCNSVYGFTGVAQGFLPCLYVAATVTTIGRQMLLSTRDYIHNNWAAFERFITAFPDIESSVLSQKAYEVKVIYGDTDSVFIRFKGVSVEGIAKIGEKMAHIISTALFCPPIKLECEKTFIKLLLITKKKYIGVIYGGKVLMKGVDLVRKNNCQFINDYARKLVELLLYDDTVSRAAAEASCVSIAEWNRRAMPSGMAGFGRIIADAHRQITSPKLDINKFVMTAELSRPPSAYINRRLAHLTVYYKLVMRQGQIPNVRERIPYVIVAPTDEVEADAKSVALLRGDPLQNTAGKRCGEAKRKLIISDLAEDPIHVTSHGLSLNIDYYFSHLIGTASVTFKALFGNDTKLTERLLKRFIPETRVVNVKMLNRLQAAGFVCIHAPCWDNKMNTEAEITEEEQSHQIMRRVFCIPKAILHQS

| IC50 [1] | IC50 [2] | melting point | IC50 [3] | Structure (SMILES) |
| --- | --- | --- | --- | --- |
| 0.48 µM | 0.98 µM | 115 to 118 °C | 1.08 µM | O=C(NCc1ccc(Cl)cc1)c1cn(-c2cccc(CCCO)c2)c2ccc(CN3CCOCC3)cc2c1=O [Example 25, N-(4-Chlorobenzyl)-1-[3-(3-hydroxypropyl)phenyl]-6-(4-morpholinylmethyl)-4-oxo-1,4-dihydro-3-quinolinecarboxamide] |
| 0.29 µM | 0.59 µM | 145 to 148 °C | 0.57 µM | O=C(NCc1ccc(Cl)cc1)c1cn(-c2cccc(C#CCO)c2)c2ccc(CN3CCOCC3)cc2c1=O [Example 20, N-(4-Chlorobenzyl)-1-(3-(3-hydroxy-1-propynyl)phenyl)-6-(4-morpholinylmethyl)-4-oxo-1,4-dihydro-3-quinolinecarboxamide] |
| 0.4 µM | 0.55 µM | 168 to 169 °C | 0.81 µM | O=C(NCc1ccc(Cl)cc1)c1cn(-c2ccccc2)c2ccc(CN3CCOCC3)cc2c1=O [Example 1, N-(4-Chlorobenzyl)-6-(4-morpholinylmethyl)-4-oxo-1-phenyl-1,4-dihydro-3-quinolinecarboxamide] |
| 0.43 µM | 0.7 µM | 158 to 160 °C | 0.82 µM | O=C(NCc1ccc(Cl)cc1)c1cn(-c2cccc(CCO)c2)c2ccc(CN3CCOCC3)cc2c1=O [Example 14, N-(4-Chlorobenzyl)-1-(3-(2-hydroxyethyl)phenyl)-6-(4-morpholinylmethyl)-4-oxo-1,4-dihydro-3-quinolinecarboxamide] |
